This is an account of results in patent US11542274B1, “Therapeutic compounds and methods of use thereof” (AGENCY FOR SCIENCE, TECHNOLOGY AND RESEARCH (A*STAR), priority 2019, dated 2023).

Molecules are shown by their SMILES.

This assay concerns RAMOS cells (Burkitt's lymphoma cell line). Briefly: Anti-proliferation assay (CellTiter-Glo). The format is cell-based. To be noted: Homo sapiens, 72 h, 3 days. The procedure: In cell growth experiments, cells were seeded in 96-well cell culture plates at a density of 3000 of RAMOS cells/well in 100 μL of culture medium. 100 μL of the diluted solution containing the tested compound was added to the appropriate wells of the cell plate. After addition of the tested compound, the cells were incubated at 37° C. in an atmosphere of 5% CO2 for 3 days. CellTiter-Glo (CTG) reagent from the Promega CellTiter-Glo Luminescent Cell Viability Assay kit (#G7572) was added into an OptiPlate 96 (Perkin Elmer, White, Opaque, #6005299) in the dark, incubated for at least 2 hrs, and luminescence signal was read using Tecan Safire II Multi-Mode Plate Reader. The GI50 was calculated by nonlinear regression analysis using GraphPad Prism5 software.
GI50 is the concentration for 50% of maximal inhibition of cell proliferation.
`Cc1sc2c(c1C)C(c1ccc(Cl)cc1)=N[C@@H](CC(=O)NCCOCCOCCOCCNc1ccc(-c3ccc4c(c3)CC(=O)N4)cn1)c1nnc(C)n1-2` [Compound 099, (S)-2-(4-(4-chlorophenyl)-2,3,9-trimethyl-6H-thieno[3,2-f][1,2,4]triazolo[4,3-a][1,4]diazepin-6-yl)-N-(2-(2-(2-(2-((5-(2-oxoindolin-5-yl)pyridin-2-yl)amino)ethoxy)ethoxy)ethoxy)ethyl)acetamide] displayed a GI50 of 0.001 to 0.1 µM.
For `Cc1sc2c(c1C)C(c1ccc(Cl)cc1)=N[C@@H](CC(=O)NCCOCCOCCOCCNc1ccc(-c3ccc4c(c3)NC(=O)C4)cn1)c1nnc(C)n1-2` [Compound 100, (S)-2-(4-(4-chlorophenyl)-2,3,9-trimethyl-6H-thieno[3,2-f][1,2,4]triazolo[4,3-a][1,4]diazepin-6-yl)-N-(2-(2-(2-(2-((5-(2-oxoindolin-6-yl)pyridin-2-yl)amino)ethoxy)ethoxy)ethoxy)ethyl)acetamide] the value was 0.1 to 1 µM; for `Cc1sc2c(c1C)C(c1ccc(Cl)cc1)=N[C@@H](CC(=O)NCCOCCOCCOCCNc1ccc(C(=O)Nc3ccc4c(c3)CC(=O)N4)cn1)c1nnc(C)n1-2` [Compound 101, (S)-6-((1-(4-(4-chlorophenyl)-2,3,9-trimethyl-6H-thieno[3,2-f][1,2,4]triazolo[4,3-a][1,4]diazepin-6-yl)-2-oxo-6,9,12-trioxa-3-azatetradecan-14-yl)amino)-N-(2-oxoindolin-5-yl)nicotinamide], 0.1 to 1 µM; for `Cc1sc2c(c1C)C(c1ccc(Cl)cc1)=N[C@@H](CC(=O)Nc1ccc(OCCOCCOCCOCCNC(=O)c3cccc(-c4ccc5c(c4)NC(=O)C5)c3)cc1)c1nnc(C)n1-2` [Compound 102, (S)—N-(2-(2-(2-(2-(4-(2-(4-(4-chlorophenyl)-2,3,9-trimethyl-6H-thieno[3,2-f][1,2,4]triazolo[4,3-a][1,4]diazepin-6-yl)acetamido)phenoxy)ethoxy)ethoxy)ethoxy)ethyl)-3-(2-oxoindolin-6-yl)benzamide], 0.1 to 1 µM.
`Cc1sc2c(c1C)C(c1ccc(Cl)cc1)=N[C@@H](CC(=O)Nc1ccc(OCCOCCOCCOCCNC(=O)c3cccc(-c4ccc5c(c4)CC(=O)N5)c3)cc1)c1nnc(C)n1-2` [Compound 103, (S)—N-(2-(2-(2-(2-(4-(2-(4-(4-chlorophenyl)-2,3,9-trimethyl-6H-thieno[3,2-f][1,2,4]triazolo[4,3-a][1,4]diazepin-6-yl)acetamido)phenoxy)ethoxy)ethoxy)ethoxy)ethyl)-3-(2-oxoindolin-5-yl)benzamide]: the GI50 is 0.1 to 1 µM.
`Cc1sc2c(c1C)C(c1ccc(Cl)cc1)=N[C@@H](CC(=O)Nc1ccc(OCCOCCOCCOCCNc3ccc(-c4ccc5c(c4)CC(=O)N5)cc3)cc1)c1nnc(C)n1-2` [Compound 104, (S)-2-(4-(4-chlorophenyl)-2,3,9-trimethyl-6H-thieno[3,2-f][1,2,4]triazolo[4,3-a][1,4]diazepin-6-yl)-N-(4-(2-(2-(2-(2-((4-(2-oxoindolin-5-yl)phenyl)amino)ethoxy)ethoxy)ethoxy)ethoxy)phenyl)acetamide]: the GI50 lay within 0.001 to 0.1 µM.
The same measure for `Cc1sc2c(c1C)C(c1ccc(Cl)cc1)=N[C@@H](CC(=O)NCCCCCNc1ncccc1-c1ccc3c(c1)CC(=O)N3)c1nnc(C)n1-2` [Compound 105, (S)-2-(4-(4-chlorophenyl)-2,3,9-trimethyl-6H-thieno[3,2-f][1,2,4]triazolo[4,3-a][1,4]diazepin-6-yl)-N-(5-((3-(2-oxoindolin-5-yl)pyridin-2-yl)amino)pentyl)acetamide]: 0.001 to 0.1 µM; for `Cc1sc2c(c1C)C(c1ccc(Cl)cc1)=N[C@@H](CC(=O)Nc1ccc(OCCOCCNC(=O)c3cccc(-c4ccc5c(c4)CC(=O)N5)c3)cc1)c1nnc(C)n1-2` [Compound 106, (S)—N-(2-(2-(4-(2-(4-(4-chlorophenyl)-2,3,9-trimethyl-6H-thieno[3,2-f][1,2,4]triazolo[4,3-a][1,4]diazepin-6-yl)acetamido)phenoxy)ethoxy)ethyl)-3-(2-oxoindolin-5-yl)benzamide]: 0.001 to 0.1 µM.
The same measure for `Cc1sc2c(c1C)C(c1ccc(Cl)cc1)=N[C@@H](CC(=O)NCCOCCOCCOCCNc1ncccc1-c1ccc3c(c1)CC(=O)N3)c1nnc(C)n1-2` [Compound 107, (S)-2-(4-(4-chlorophenyl)-2,3,9-trimethyl-6H-thieno[3,2-f][1,2,4]triazolo[4,3-a][1,4]diazepin-6-yl)-N-(2-(2-(2-(2-((3-(2-oxoindolin-5-yl)pyridin-2-yl)amino)ethoxy)ethoxy)ethoxy)ethyl)acetamide]: 0.001 to 0.1 µM; for `Cc1sc2c(c1C)C(c1ccc(Cl)cc1)=N[C@@H](CC(=O)NCCOCCOCCOCCNc1ncccc1-c1ccc3c(c1)NC(=O)C3)c1nnc(C)n1-2` [Compound 108, (S)-2-(4-(4-chlorophenyl)-2,3,9-trimethyl-6H-thieno[3,2-f][1,2,4]triazolo[4,3-a][1,4]diazepin-6-yl)-N-(2-(2-(2-(2-((3-(2-oxoindolin-6-yl)pyridin-2-yl)amino)ethoxy)ethoxy)ethoxy)ethyl)acetamide]: 0.1 to 1 µM; for `Cc1sc2c(c1C)C(c1ccc(Cl)cc1)=N[C@@H](CC(=O)NCCOCCOCCOCCC(=O)NC1CCN(C(=O)c3ccc4c(c3)CC(=O)N4)CC1)c1nnc(C)n1-2` [Compound 109, (S)-3-(2-(2-(2-(2-(4-(4-chlorophenyl)-2,3,9-trimethyl-6H-thieno[3,2-f][1,2,4]triazolo[4,3-a][1,4]diazepin-6-yl)acetamido)ethoxy)ethoxy)ethoxy)-N-(1-(2-oxoindoline-5-carbonyl)piperidin-4-yl)propanamide]: 0.001 to 0.1 µM.
The same measure for `Cc1sc2c(c1C)C(c1ccc(Cl)cc1)=N[C@@H](CC(=O)NCCOCCOCCOCCC(=O)NC1CCN(C(=O)c3ccc4c(c3)NC(=O)C4)CC1)c1nnc(C)n1-2` [Compound 110, (S)-3-(2-(2-(2-(2-(4-(4-chlorophenyl)-2,3,9-trimethyl-6H-thieno[3,2-f][1,2,4]triazolo[4,3-a][1,4]diazepin-6-yl)acetamido)ethoxy)ethoxy)ethoxy)-N-(1-(2-oxoindoline-6-carbonyl)piperidin-4-yl)propanamide]: greater than 1 µM; for `Cc1sc2c(c1C)C(c1ccc(Cl)cc1)=N[C@@H](CC(=O)NCCOCCOCCOCCC(=O)NC1CCCN(C(=O)c3ccc4c(c3)NC(=O)C4)C1)c1nnc(C)n1-2` (stereo partly drawn) [Compound 111, 3-(2-(2-(2-(2-((S)-4-(4-chlorophenyl)-2,3,9-trimethyl-6H-thieno[3,2-f][1,2,4]triazolo[4,3-a][1,4]diazepin-6-yl)acetamido)ethoxy)ethoxy)ethoxy)-N-(1-(2-oxoindoline-6-carbonyl)piperidin-3-yl)propanamide]: greater than 1 µM; for `Cc1sc2c(c1C)C(c1ccc(Cl)cc1)=N[C@@H](CC(=O)NCCOCCOCCOCCC(=O)NC1CCCN(C(=O)c3ccc4c(c3)CC(=O)N4)C1)c1nnc(C)n1-2` (stereo partly drawn) [Compound 112, 3-(2-(2-(2-(2-((S)-4-(4-chlorophenyl)-2,3,9-trimethyl-6H-thieno[3,2-f][1,2,4]triazolo[4,3-a][1,4]diazepin-6-yl)acetamido)ethoxy)ethoxy)ethoxy)-N-(1-(2-oxoindoline-5-carbonyl)piperidin-3-yl)propanamide]: 0.1 to 1 µM.
`Cc1sc2c(c1C)C(c1ccc(Cl)cc1)=N[C@@H](CC(=O)NCCOCCOCCOCCNc1cc(-c3ccc4c(c3)NC(=O)C4)ccn1)c1nnc(C)n1-2` [Compound 113, (S)-2-(4-(4-chlorophenyl)-2,3,9-trimethyl-6H-thieno[3,2-f][1,2,4]triazolo[4,3-a][1,4]diazepin-6-yl)-N-(2-(2-(2-(2-((4-(2-oxoindolin-6-yl)pyridin-2-yl)amino)ethoxy)ethoxy)ethoxy)ethyl)acetamide] had a GI50 of 0.1 to 1 µM.
The same measure for `Cc1sc2c(c1C)C(c1ccc(Cl)cc1)=N[C@@H](CC(=O)NCCOCCOCCOCCOCCNc1ccc(-c3ccc4c(c3)CC(=O)N4)cn1)c1nnc(C)n1-2` [Compound 114, (S)-2-(4-(4-chlorophenyl)-2,3,9-trimethyl-6H-thieno[3,2-f][1,2,4]triazolo[4,3-a][1,4]diazepin-6-yl)-N-(14-((5-(2-oxoindolin-5-yl)pyridin-2-yl)amino)-3,6,9,12-tetraoxatetradecyl)acetamide]: 0.1 to 1 µM.
For `Cc1sc2c(c1C)C(c1ccc(Cl)cc1)=N[C@@H](CC(=O)NCCOCCOCCOCCOCCOCCNc1ccc(-c3ccc4c(c3)CC(=O)N4)cn1)c1nnc(C)n1-2` [Compound 115, (S)-2-(4-(4-chlorophenyl)-2,3,9-trimethyl-6H-thieno[3,2-f][1,2,4]triazolo[4,3-a][1,4]diazepin-6-yl)-N-(17-((5-(2-oxoindolin-5-yl)pyridin-2-yl)amino)-3,6,9,12,15-pentaoxaheptadecyl)acetamide] the value was 0.1 to 1 µM.
In turn, `Cc1sc2c(c1C)C(c1ccc(Cl)cc1)=N[C@@H](CC(=O)NCCOCCOCCNc1ccc(-c3ccc4c(c3)CC(=O)N4)cn1)c1nnc(C)n1-2` [Compound 116, (S)-2-(4-(4-chlorophenyl)-2,3,9-trimethyl-6H-thieno[3,2-f][1,2,4]triazolo[4,3-a][1,4]diazepin-6-yl)-N-(2-(2-(2-((5-(2-oxoindolin-5-yl)pyridin-2-yl)amino)ethoxy)ethoxy)ethyl)acetamide] showed a GI50 of 0.001 to 0.1 µM.
As for `Cc1sc2c(c1C)C(c1ccc(Cl)cc1)=N[C@@H](CC(=O)NCCOCCNc1ccc(-c3ccc4c(c3)CC(=O)N4)cn1)c1nnc(C)n1-2` [Compound 117, (S)-2-(4-(4-chlorophenyl)-2,3,9-trimethyl-6H-thieno[3,2-f][1,2,4]triazolo[4,3-a][1,4]diazepin-6-yl)-N-(2-(2-((5-(2-oxoindolin-5-yl)pyridin-2-yl)amino)ethoxy)ethyl)acetamide], the concentration for 50% growth inhibition (GI50) was in the range of 0.001 to 0.1 µM.
